The IC50 is the point on the concentration scale where inhibition reaches its midpoint. In general, inhibition refers to the drop in the measured response relative to a control, in per cent.

Like-named read-outs stand apart in the source and are kept apart here.

The target of one series is Tyk2 (Homo sapiens, UniProt P29597). As to the kind of experiment: Enzymatic Tyk2 kinase activity. Conditions: dose-response curves; read-out: IC50 ± SD, Tyk2. The format is biochemical. How it is done: (§1) Enzymatic Syk kinase activity assays were performed as previously described. Enzymatic activity of JAK1, JAK2, JAK3, and Tyk kinases was evaluated as previously described.
Sequence of Tyk2 (P29597 whole entry, species assumed): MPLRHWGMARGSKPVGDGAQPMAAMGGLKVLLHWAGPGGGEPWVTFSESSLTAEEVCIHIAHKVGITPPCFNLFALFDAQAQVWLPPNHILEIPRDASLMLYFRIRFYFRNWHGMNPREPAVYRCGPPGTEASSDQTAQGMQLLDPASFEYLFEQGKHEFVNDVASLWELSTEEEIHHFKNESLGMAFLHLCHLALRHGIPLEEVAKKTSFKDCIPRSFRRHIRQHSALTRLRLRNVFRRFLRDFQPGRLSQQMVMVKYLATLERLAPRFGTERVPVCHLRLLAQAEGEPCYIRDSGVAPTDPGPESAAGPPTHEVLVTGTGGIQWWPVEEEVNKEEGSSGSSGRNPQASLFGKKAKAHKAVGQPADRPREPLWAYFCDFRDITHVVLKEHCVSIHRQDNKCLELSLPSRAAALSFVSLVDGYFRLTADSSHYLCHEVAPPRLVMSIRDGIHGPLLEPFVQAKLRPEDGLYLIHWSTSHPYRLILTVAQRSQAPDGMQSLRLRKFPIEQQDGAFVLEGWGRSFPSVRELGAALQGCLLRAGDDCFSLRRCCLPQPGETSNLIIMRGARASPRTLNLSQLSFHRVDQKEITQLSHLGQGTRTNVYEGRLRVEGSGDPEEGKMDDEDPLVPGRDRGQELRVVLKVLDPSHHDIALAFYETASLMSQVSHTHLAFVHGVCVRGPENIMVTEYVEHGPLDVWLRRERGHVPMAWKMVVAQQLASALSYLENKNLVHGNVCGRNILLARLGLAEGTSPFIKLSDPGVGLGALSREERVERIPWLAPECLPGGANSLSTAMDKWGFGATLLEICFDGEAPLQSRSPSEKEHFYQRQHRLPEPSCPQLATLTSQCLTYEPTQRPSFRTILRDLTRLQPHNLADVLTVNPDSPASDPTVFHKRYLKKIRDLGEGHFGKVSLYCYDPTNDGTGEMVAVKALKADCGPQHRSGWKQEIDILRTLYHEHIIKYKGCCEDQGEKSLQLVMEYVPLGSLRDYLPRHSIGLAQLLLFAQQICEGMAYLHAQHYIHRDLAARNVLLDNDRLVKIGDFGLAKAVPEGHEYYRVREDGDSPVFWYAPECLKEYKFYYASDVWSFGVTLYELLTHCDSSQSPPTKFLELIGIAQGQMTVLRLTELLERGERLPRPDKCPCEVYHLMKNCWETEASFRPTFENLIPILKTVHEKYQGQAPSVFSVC

The target in another series is Syk (Homo sapiens, UniProt P43405). In words: Enzymatic Syk kinase activity. The format is biochemical. Conditions: dose-response curves; read-out: IC50 ± SD, Syk. On the procedure:
as §1

A short description of series [1]: Cytotoxicity, ATP levels (ATPlite), RDEB_L1 cells. It counts as cell-based. Conditions: human, RDEB L1 cells (RDEB patient-derived cell line). On the procedure: The viability of RDEB patient-derived cell lines or NHK was evaluated by measuring the ATP levels as an indirect readout of the potential cytotoxicity effect of compounds. Cells were plated and treated exactly with the same conditions as those followed in the AlphaLISA assay, described above. To measure ATP levels, cells were processed using the ATPlite™ 1step luminescence-based assay (PerkinElmer 6,016,731), following the manufacturer’s protocol. 25 μL of ATPlite™ reagent was added directly over cells and plates were covered with a sealing film and shaken for 25 min using a microtiter plate shaker. Luminescence was measured in a Luminoskan Ascent luminometer (Thermo Fisher Scientific). 10 μM of Staurosporine was used as a reference compound and control for the total cytotoxicity.
(ATP-based viability assays read luminescence as a measure of living cells.)

For a further series, the system named is NHK cells. As to the kind of experiment: Cytotoxicity, ATP levels, normal human keratinocytes (NHK). The format is cell-based. To be noted: NHK cells, ATP levels, at 100 µM. The method, boiled down:
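RDEB patient-derived cells, CHO cells or normal human keratinocytes were plated and treated as in the AlphaLISA assay. Viability was read as ATP by ATPlite 1step luminescence; 10 μM staurosporine served as the total-cytotoxicity control.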

For a further series, the target named is T1, A2A (Homo sapiens, UniProt P29274).
T1 construct: Eurofins Pharma Discovery Services
T1 sequence (P29274 whole entry): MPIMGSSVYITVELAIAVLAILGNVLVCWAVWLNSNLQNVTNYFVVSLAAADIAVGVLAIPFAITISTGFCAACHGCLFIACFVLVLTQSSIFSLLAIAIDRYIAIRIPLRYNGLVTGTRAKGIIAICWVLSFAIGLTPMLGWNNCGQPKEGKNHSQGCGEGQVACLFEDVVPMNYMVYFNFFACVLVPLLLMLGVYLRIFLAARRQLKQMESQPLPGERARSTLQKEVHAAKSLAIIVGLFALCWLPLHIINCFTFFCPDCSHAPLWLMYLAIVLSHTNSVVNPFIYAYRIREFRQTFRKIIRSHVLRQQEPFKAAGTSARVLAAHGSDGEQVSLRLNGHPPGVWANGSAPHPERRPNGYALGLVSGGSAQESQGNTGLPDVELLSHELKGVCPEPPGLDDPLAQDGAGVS
In words: Selectivity panel (Eurofins): A2A adenosine receptor. It counts as binding.

The target of another series is T2, SAPK2α (Homo sapiens, UniProt Q16539).
T2 construct: Eurofins Pharma Discovery Services
T2 sequence (Q16539 whole entry): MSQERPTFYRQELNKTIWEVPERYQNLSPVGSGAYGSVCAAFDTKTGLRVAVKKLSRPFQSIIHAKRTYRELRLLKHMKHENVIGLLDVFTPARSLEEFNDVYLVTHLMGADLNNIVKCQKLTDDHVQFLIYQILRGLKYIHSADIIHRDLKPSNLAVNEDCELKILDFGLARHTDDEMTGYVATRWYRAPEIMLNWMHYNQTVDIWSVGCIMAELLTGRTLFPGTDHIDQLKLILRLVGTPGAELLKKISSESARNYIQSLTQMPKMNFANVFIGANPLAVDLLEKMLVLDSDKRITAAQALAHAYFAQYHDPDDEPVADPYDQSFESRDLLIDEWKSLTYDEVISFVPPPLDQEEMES
As to the kind of experiment: Selectivity panel (Eurofins): p38/SAPK2α kinase. It counts as biochemical.

The target in the next series is T3, PDE4D2 (Homo sapiens, UniProt Q08499).
T3 construct: Eurofins Pharma Discovery Services
T3 sequence (Q08499 303-809 limits assumed): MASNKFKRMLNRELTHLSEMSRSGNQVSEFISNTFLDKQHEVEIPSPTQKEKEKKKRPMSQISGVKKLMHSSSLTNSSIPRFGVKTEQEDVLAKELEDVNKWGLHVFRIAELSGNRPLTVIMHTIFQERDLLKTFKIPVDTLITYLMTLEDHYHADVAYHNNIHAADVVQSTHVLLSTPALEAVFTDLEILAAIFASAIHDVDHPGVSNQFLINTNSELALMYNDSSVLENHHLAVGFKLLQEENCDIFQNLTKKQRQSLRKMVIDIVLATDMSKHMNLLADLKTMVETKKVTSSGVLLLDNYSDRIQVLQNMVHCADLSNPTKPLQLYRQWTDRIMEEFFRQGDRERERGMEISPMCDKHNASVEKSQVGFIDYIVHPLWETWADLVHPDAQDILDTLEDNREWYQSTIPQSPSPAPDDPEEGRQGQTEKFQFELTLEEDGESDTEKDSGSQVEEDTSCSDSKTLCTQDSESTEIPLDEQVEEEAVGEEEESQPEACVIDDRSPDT
In words: Selectivity panel (Eurofins): PDE4D2. It counts as biochemical. Conditions: n = 1, duplicate. On the procedure: Selectivity was evaluated at Eurofins Pharma Discovery Services at 3 µM, 10 µM, and 30 µM in duplicate using a selection of 84 representative kinases and 44 GPCRs, transporters, nuclear receptors (NR), enzymes, and ion channels.

Setting [2] is: at concentrations of 3 and 10 µM.

Take `NC(=O)Cn1ccc2ccc(-c3cnc(N)c(C(=O)NC4C5CC6CC4CC(O)(C6)C5)n3)cc21` (stereo not shown) [Compound 1]: the IC50 at Tyk2 turned out to be 30 ± 0.6 nM; at Syk, 1720 ± 440 nM.
Consider `C#Cc1cc(-c2ccncc2)c(-c2cccc(F)c2)nc1N` [Compound 7], for which, in series [1], the IC50 was above 100 µM. In the series with NHK cells, the “Cytotox. % inhibition of viability” value is listed as 19% ± 11 at 100 (n=4). Moreover, the inhibition at 10 µM worked out at 96% on A2A (Table 5, read-out: Selectivity % inhibition, A2A); 100% at A2A (n = 1, duplicate, read-out: % inhibition, A2A); 103% at SAPK2α (at 10 μM, n = 1, duplicate, read-out: % inhibition, SAPK2α); 34% at PDE4D2 (at 10 μM). In addition, the inhibition at 3 µM on A2A (at 3 μM, n = 1, duplicate, read-out: % inhibition, A2A) was found to be 101%; on SAPK2α (at 3 μM, n = 1, duplicate, read-out: % inhibition, SAPK2α), 90%; against PDE4D2 (at 3 μM), 16%. In addition, the inhibition at 30 µM is 101% at A2A (at 30 μM, n = 1, duplicate, read-out: % inhibition, A2A); 107% at SAPK2α (at 30 μM, n = 1, duplicate, read-out: % inhibition, SAPK2α); 61% at PDE4D2 (at 30 μM). Besides, on A2A (setting [2]), the “antagonism/inhibition of A2A adenosine receptor” value is listed as at least 50%. Further, at SAPK2α (setting [2]), the “antagonism/inhibition of p38/SAPK2α kinase” value is given as at least 50%.

Source of the values: PMC11329504, “Identification of novel small molecule-based strategies of COL7A1 upregulation and readthrough activity for the treatment of recessive dystrophic epidermolysis bullosa” (Scientific Reports, 2024).
